{"source": "paper PMC9105110", "about": "“Changes in Biochemical Properties and Activity of Trypsin-like Protease (Litopenaeus vannamei) Treated by Atmospheric Cold Plasma (ACP)” (Foods, 2022)", "system": "T1, trypsin-like protease (trypsin) from Litopenaeus vannamei", "T1 construct": "native, purified from hepatopancreas (ammonium sulfate, Q-Sepharose FF); single band about 33 kDa on SDS-PAGE", "experiment": "absorbance at […] nm, Lineweaver-Burk plot", "format": "biochemical, Penaeus vannamei", "settings": "20 mM Tris-HCl pH 8.0, 37 °C, 20 min, 0.4-2.4 mM substrate; untreated control (no cold plasma)", "data": [{"smiles": "N=C(N)NCCCC(NC(=O)c1ccccc1)C(=O)Nc1ccc([N+](=O)[O-])cc1", "note": "(racemic) [BAPNA]", "values": [{"measurement": "Km", "result": "4.16 ± 0.01", "unit": "mM"}]}]}
